ChEMBL document CHEMBL3044875, “Synthesis and antimicrobial activity of some bisoctahydroxanthene-1,8-dione derivatives” (2011)
Active and inactive are the calls of the source. The calls are words filed in the database; no cut-off is given here.

What was measured:
[1] = tested on: Proteus vulgaris; test: Antibacterial activity against Proteus vulgaris NRRL-B-123 at 40 ug/disk after 24 hr by disk diffusion method; type: functional, organism-based
[2] = tested on: Escherichia coli; test: Antibacterial activity against Escherichia coli ATCC 25922 at 40 ug/disk after 24 hr by disk-diffusion method; type: functional; details: for zone of inhibition at 40 µg/disc: ATCC 25922, 24 h, read-out: DIZ
[3] = tested on: Pseudomonas aeruginosa; test: Antibacterial activity against Pseudomonas aeruginosa ATCC 27853 at 20 ug/disk after 24 hr by disk-diffusion method; type: functional, organism-based
[4] = tested on: Pseudomonas aeruginosa; test: Antibacterial activity against Pseudomonas aeruginosa ATCC 27853 at 40 ug/disk after 24 hr by disk-diffusion method; type: functional, organism-based
[5] = tested on: Escherichia coli; test: Antibacterial activity against Escherichia coli ATCC 25922 at 20 ug/disk after 24 hr by disk-diffusion method; type: functional
[6] = tested on: Aspergillus niger; test: Antifungal activity against Aspergillus niger ATCC 10949 at 40 ug/disk after 72 hr by disk diffusion method; type: functional, organism-based
[7] = tested on: Bacillus cereus; test: Antibacterial activity against Bacillus cereus NRRL 3711 at 40 ug/disk after 24 hr by disk diffusion method; type: functional; details: for zone of inhibition at 40 µg/disc: NRRL 3711, 24 h, read-out: DIZ
[8] = tested on: Staphylococcus epidermidis; test: Antibacterial activity against Staphylococcus epidermidis ATCC 12228 at 140 ug/disk after 24 hr by disk diffusion method; type: functional; details: for zone of inhibition at 140 µg/disc: ATCC 12228, 24 h, read-out: DIZ
[9] = tested on: Bacillus cereus; test: Antibacterial activity against Bacillus cereus NRRL 3711 at 140 ug/disk after 24 hr by disk diffusion method; type: functional; details: NRRL 3711, 24 h, read-out: DIZ
[10] = tested on: Nocardia; test: Antibacterial activity against Nocardia canis at 140 ug/disk after 24 hr by disk diffusion method; type: functional
[11] = tested on: Aspergillus niger; test: Antifungal activity against Aspergillus niger ATCC 10949 at 20 ug/disk after 72 hr by disk diffusion method; type: functional, organism-based
[12] = tested on: Staphylococcus aureus; test: Antibacterial activity against Staphylococcus aureus ATCC 25923 at 20 ug/disc after 24 hr by disk diffusion method; type: functional; details: for zone of inhibition at 20 µg/disc: ATCC 25923, 24 h, read-out: DIZ
[13] = tested on: Rhodotorula mucilaginosa; test: Antifungal activity against Rhodotorula mucilaginosa at 140 ug/disk after 48 hr by disk diffusion method; type: functional; details: read-out: DIZ
[14] = tested on: Bacillus cereus; test: Antibacterial activity against Bacillus cereus NRRL 3711 at 20 ug/disk after 24 hr by disk diffusion method; type: functional; details: for zone of inhibition at 20 µg/disc: NRRL 3711, 24 h, read-out: DIZ
[15] = tested on: Proteus vulgaris; test: Antibacterial activity against Proteus vulgaris NRRL-B-123 at 140 ug/disk after 24 hr by disk diffusion method; type: functional, organism-based
[16] = tested on: Pseudomonas aeruginosa; test: Antibacterial activity against Pseudomonas aeruginosa ATCC 27853 at 140 ug/disk after 24 hr by disk-diffusion method; type: functional, organism-based
[17] = tested on: Escherichia coli; test: Antibacterial activity against Escherichia coli ATCC 25922 at 140 ug/disk after 24 hr by disk-diffusion method; type: functional; details: for zone of inhibition at 140 µg/disc: ATCC 25922, 24 h, read-out: DIZ
[18] = tested on: Aspergillus niger; test: Antifungal activity against Aspergillus niger ATCC 10949 at 140 ug/disk after 72 hr by disk diffusion method; type: functional; details: for zone of inhibition at 140 µg/disc: ATCC 10949, 72 h, read-out: DIZ
[19] = tested on: Nocardia; test: Antibacterial activity against Nocardia canis at 20 ug/disk after 24 hr by disk diffusion method; type: functional, organism-based
[20] = tested on: Candida albicans; test: Antifungal activity against Candida albicans ATCC 10231 at 20 ug/disk after 48 hr by disk-diffusion method; type: functional; details: for zone of inhibition at 20 µg/disc: ATCC 10231, 48 h, read-out: DIZ
[21] = tested on: Candida albicans; test: Antifungal activity against Candida albicans ATCC 10231 at 40 ug/disk after 48 hr by disk-diffusion method; type: functional; details: ATCC 10231, 48 h, read-out: DIZ
[22] = tested on: Proteus vulgaris; test: Antibacterial activity against Proteus vulgaris NRRL-B-123 at 20 ug/disk after 24 hr by disk diffusion method; type: functional, organism-based
[23] = tested on: Staphylococcus epidermidis; test: Antibacterial activity against Staphylococcus epidermidis ATCC 12228 at 20 ug/disk after 24 hr by disk diffusion method; type: functional, organism-based
[24] = tested on: Nocardia; test: Antibacterial activity against Nocardia canis at 40 ug/disk after 24 hr by disk diffusion method; type: functional
[25] = tested on: Staphylococcus aureus; test: Antibacterial activity against Staphylococcus aureus ATCC 25923 at 140 ug/disc after 24 hr by disk diffusion method; type: functional; details: for zone of inhibition at 140 µg/disc: ATCC 25923, 24 h, read-out: DIZ
[26] = tested on: Staphylococcus epidermidis; test: Antibacterial activity against Staphylococcus epidermidis ATCC 12228 at 40 ug/disk after 24 hr by disk diffusion method; type: functional
[27] = tested on: Rhodotorula mucilaginosa; test: Antifungal activity against Rhodotorula mucilaginosa at 40 ug/disk after 48 hr by disk diffusion method; type: functional; details: for zone of inhibition at 40 µg/disc: read-out: DIZ
[28] = tested on: Rhodotorula mucilaginosa; test: Antifungal activity against Rhodotorula mucilaginosa at 20 ug/disk after 48 hr by disk diffusion method; type: functional; details: for zone of inhibition at 20 µg/disc: read-out: DIZ
[29] = tested on: Candida albicans; test: Antifungal activity against Candida albicans ATCC 10231 at 140 ug/disk after 48 hr by disk-diffusion method; type: functional; details: ATCC 10231, 48 h, read-out: DIZ
[30] = tested on: Staphylococcus aureus; test: Antibacterial activity against Staphylococcus aureus ATCC 25923 at 40 ug/disc after 24 hr by disk diffusion method; type: functional; details: for zone of inhibition at 40 µg/disc: ATCC 25923, 24 h, read-out: DIZ

SMILES | diameter of the inhibition zone (DIZ) [1] | diameter of the inhibition zone (DIZ) [2] | diameter of the inhibition zone (DIZ) [3] | diameter of the inhibition zone (DIZ) [4] | diameter of the inhibition zone (DIZ) [5] | diameter of the inhibition zone (DIZ) [6] | diameter of the inhibition zone (DIZ) [7] | zone of inhibition at 140 µg/disc [9] [mm] | diameter of the inhibition zone (DIZ) [10] | diameter of the inhibition zone (DIZ) [11] | zone of inhibition at 140 µg/disc [13] [mm] | diameter of the inhibition zone (DIZ) [15] | diameter of the inhibition zone (DIZ) [16] | diameter of the inhibition zone (DIZ) [19] | zone of inhibition at 40 µg/disc [21] [mm] | diameter of the inhibition zone (DIZ) [22] | diameter of the inhibition zone (DIZ) [23] | diameter of the inhibition zone (DIZ) [24] | diameter of the inhibition zone (DIZ) [26] | zone of inhibition at 140 µg/disc [29] [mm] | also measured
CC1(C)CC(=O)C2=C(C1)OC1=C(C(=O)CC(C)(C)C1)C2c1ccc(C2C3=C(CC(C)(C)CC3=O)OC3=C2C(=O)CC(C)(C)C3)cc1 | inactive | inactive | inactive | inactive | inactive | inactive | inactive | 7 | inactive | inactive | 9 | inactive | inactive | inactive | 9 | inactive | inactive | inactive | inactive | 9 | diameter of the inhibition zone (DIZ) [8]: inactive; diameter of the inhibition zone (DIZ) [12]: inactive; diameter of the inhibition zone (DIZ) [14]: inactive; diameter of the inhibition zone (DIZ) [17]: inactive; diameter of the inhibition zone (DIZ) [18]: inactive; diameter of the inhibition zone (DIZ) [20]: inactive; diameter of the inhibition zone (DIZ) [25]: inactive; diameter of the inhibition zone (DIZ) [27]: inactive; diameter of the inhibition zone (DIZ) [28]: inactive; diameter of the inhibition zone (DIZ) [30]: inactive
O=C1CCCC2=C1C(c1ccc(C3C4=C(CCCC4=O)OC4=C3C(=O)CCC4)cc1)C1=C(CCCC1=O)O2 | inactive | inactive | inactive | inactive | inactive | inactive |  | 8 | inactive | inactive | 10 | inactive | inactive | inactive | 8 | inactive | inactive | inactive | inactive | 8 | zone of inhibition at 40 µg/disc [7]: 9 mm; zone of inhibition at 140 µg/disc [8]: 7 mm; zone of inhibition at 20 µg/disc [12]: 8 mm; zone of inhibition at 20 µg/disc [14]: 8 mm; diameter of the inhibition zone (DIZ) [17]: inactive; zone of inhibition at 140 µg/disc [18]: 7 mm; zone of inhibition at 20 µg/disc [20]: 7 mm; zone of inhibition at 140 µg/disc [25]: 14 mm; zone of inhibition at 40 µg/disc [27]: 9 mm; zone of inhibition at 20 µg/disc [28]: 8 mm; zone of inhibition at 40 µg/disc [30]: 10 mm
CC1(C)CC(=O)C2=C(C1)OC1=C(C(=O)CC(C)(C)C1)C2c1cccc(C2C3=C(CC(C)(C)CC3=O)OC3=C2C(=O)CC(C)(C)C3)c1 | inactive |  | inactive | inactive | inactive | inactive | inactive | 7 | inactive | inactive | 7 | inactive | inactive | inactive | 7 | inactive | inactive | inactive | inactive | 7 | zone of inhibition at 40 µg/disc [2]: 7 mm; diameter of the inhibition zone (DIZ) [8]: inactive; diameter of the inhibition zone (DIZ) [12]: inactive; diameter of the inhibition zone (DIZ) [14]: inactive; zone of inhibition at 140 µg/disc [17]: 8 mm; diameter of the inhibition zone (DIZ) [18]: inactive; diameter of the inhibition zone (DIZ) [20]: inactive; diameter of the inhibition zone (DIZ) [25]: inactive; diameter of the inhibition zone (DIZ) [27]: inactive; diameter of the inhibition zone (DIZ) [28]: inactive; diameter of the inhibition zone (DIZ) [30]: inactive
CC1(C)CCC2=C(C1=O)C(c1cccc(C3C4=C(CCC(C)(C)C4=O)OC4=C3C(=O)C(C)(C)CC4)c1)C1=C(CCC(C)(C)C1=O)O2 | inactive |  | inactive | inactive |  | inactive |  | 9 |  | inactive | 12 | inactive | inactive | inactive | 9 | inactive | inactive |  |  | 9 | zone of inhibition at 40 µg/disc [2]: 8 mm; zone of inhibition at 20 µg/disc ([5]; ATCC 25922, 24 h, read-out: DIZ): 7 mm; zone of inhibition at 40 µg/disc [7]: 9 mm; zone of inhibition at 140 µg/disc [8]: 10 mm; zone of inhibition at 140 µg/disc ([10]; read-out: DIZ): 8 mm; zone of inhibition at 20 µg/disc [12]: 8 mm; zone of inhibition at 20 µg/disc [14]: 8 mm; zone of inhibition at 140 µg/disc [17]: 9 mm; zone of inhibition at 140 µg/disc [18]: 7 mm; zone of inhibition at 20 µg/disc [20]: 8 mm; zone of inhibition at 40 µg/disc ([24]; read-out: DIZ): 7 mm; zone of inhibition at 140 µg/disc [25]: 15 mm; zone of inhibition at 40 µg/disc ([26]; ATCC 12228, 24 h, read-out: DIZ): 8 mm; zone of inhibition at 40 µg/disc [27]: 9 mm; zone of inhibition at 20 µg/disc [28]: 8 mm; zone of inhibition at 40 µg/disc [30]: 10 mm
